The numbers were not newly measured in patent US20100137246A1, “Anti-inflammatory compositions and methods” (Searete LLC, a limited liability corporation of the State …, priority 2008, published 2010), which cites them from elsewhere.

Data set [1] concerns lethal septic shock in mice.
For data set [2] the following is noted: single agent, infused at 400 mg over one hour.
The target of the next data set is Fyn (Homo sapiens, UniProt P06241). The following applies: at nanomolar concentrations.
In a further data set the test system is proteasome. The following applies: cultured breast cancer cells; through binding copper.

Fyn, sequence (P06241 whole entry, species assumed): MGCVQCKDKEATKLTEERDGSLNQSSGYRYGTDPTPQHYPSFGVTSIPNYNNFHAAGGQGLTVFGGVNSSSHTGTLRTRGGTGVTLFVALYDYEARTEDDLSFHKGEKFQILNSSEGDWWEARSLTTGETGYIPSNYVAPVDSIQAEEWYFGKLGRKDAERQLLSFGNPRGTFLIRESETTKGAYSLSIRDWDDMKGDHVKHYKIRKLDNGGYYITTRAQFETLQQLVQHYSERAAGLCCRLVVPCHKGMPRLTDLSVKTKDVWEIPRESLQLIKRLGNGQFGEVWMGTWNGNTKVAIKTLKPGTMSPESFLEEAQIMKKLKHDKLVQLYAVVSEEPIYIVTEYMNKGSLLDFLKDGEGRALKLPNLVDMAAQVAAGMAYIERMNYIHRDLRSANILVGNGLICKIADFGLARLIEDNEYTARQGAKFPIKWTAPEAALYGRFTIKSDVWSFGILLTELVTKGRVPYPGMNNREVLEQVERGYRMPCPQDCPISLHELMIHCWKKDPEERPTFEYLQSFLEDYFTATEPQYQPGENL

As for `CCN(CC)CCCC(C)Nc1ccnc2cc(Cl)ccc12` (centres unmarked) [Chloroquine], the “inhibition of CpG-induced Src family kinase activation, or its dependent cellular responses” value in the data set on Src family kinase is given as “does not inhibit”. As for `Cl.Cl.Nc1ccccc1Oc1ccc2c(N)nsc2c1` [Example M62812, 3-amino-6-(2-aminophenoxy)-1,2-benzisothiazole dihydrochloride], in data set [1], the “prevention of lethal septic shock” value was “prevents lethal septic shock”. Regarding `CCN(CC)CCCC(C)Nc1ccnc2cc(Cl)ccc12.O=P(O)(O)O.O=P(O)(O)O` (centres unmarked) [chloroquine phosphate, 7-chloro-4-[[4-(diethylamino)-1-methylbutyl]amino]quinoline phosphate (1:2)], the tolerability of infusion result in data set [2] is recorded as “without complication”.

Take `Cc1nc(Nc2ncc(C(=O)Nc3c(C)cccc3Cl)s2)cc(N2CCN(CCO)CC2)n1.O` [dasatinib, N-(2-chloro-6-methylphenyl)-2-[[6-[4-(2-hydroxyethyl)-1-piperazinyl]-2-methyl-4-pyrimidinyl]amino]-5-thiazolecarboxamide, monohydrate]: the “inhibition of Fyn” value at Fyn is “inhibits”. On to `CCN(CC)C(=S)SSC(=S)N(CC)CC` [disulfuram, 1-(diethylthiocarbamoyldisulfanyl)-N,N-diethyl-methanethioamide], for which the proteasomal activity result in the data set with proteasome is listed as “inhibits proteasomal activity”.
